Literature values as cited in patent US20170128514A1, “PHARMACEUTICAL COMPOSITION FOR TREATING CARDIO-CEREBROVASCULAR DISEASES AND METHOD FOR PREPARING THE SAME” (priority 2014, published 2017).

How the values were obtained:
[1] = test system: thrombocytopenia caused by heparin
[2] = test system: acute coronary syndrome (ACS); settings: human, in vivo

Question: With hirudin as the substance, how does the “patients with blood platelets recovered and normal” value ([1]; 14.4 hrs. after the treatment) read?
Answer: The value was 88.7%.

Question: What about the bleeding ([1]; in vivo) of the same substance?
Answer: The bleeding was “bleeding only occurs in a dose much larger than the required dose for anti-coagulation”.

Question: What about the “efficacy in treating acute coronary syndrome (ACS) compared with heparin” value [2] of the same substance?
Answer: Its value is “more significant than the heparin”.
